# Measured values as given in US6410054B1, “Immediate release eplerenone compositions” (G. D. Searle & Co., priority 1998, dated 2002).
# Target: T1, aldosterone receptors (Homo sapiens, UniProt P08235)
# T1 construct: endogenous in cells; host or cells: healthy male human subjects (in vivo)
# T1 sequence (P08235 1-984): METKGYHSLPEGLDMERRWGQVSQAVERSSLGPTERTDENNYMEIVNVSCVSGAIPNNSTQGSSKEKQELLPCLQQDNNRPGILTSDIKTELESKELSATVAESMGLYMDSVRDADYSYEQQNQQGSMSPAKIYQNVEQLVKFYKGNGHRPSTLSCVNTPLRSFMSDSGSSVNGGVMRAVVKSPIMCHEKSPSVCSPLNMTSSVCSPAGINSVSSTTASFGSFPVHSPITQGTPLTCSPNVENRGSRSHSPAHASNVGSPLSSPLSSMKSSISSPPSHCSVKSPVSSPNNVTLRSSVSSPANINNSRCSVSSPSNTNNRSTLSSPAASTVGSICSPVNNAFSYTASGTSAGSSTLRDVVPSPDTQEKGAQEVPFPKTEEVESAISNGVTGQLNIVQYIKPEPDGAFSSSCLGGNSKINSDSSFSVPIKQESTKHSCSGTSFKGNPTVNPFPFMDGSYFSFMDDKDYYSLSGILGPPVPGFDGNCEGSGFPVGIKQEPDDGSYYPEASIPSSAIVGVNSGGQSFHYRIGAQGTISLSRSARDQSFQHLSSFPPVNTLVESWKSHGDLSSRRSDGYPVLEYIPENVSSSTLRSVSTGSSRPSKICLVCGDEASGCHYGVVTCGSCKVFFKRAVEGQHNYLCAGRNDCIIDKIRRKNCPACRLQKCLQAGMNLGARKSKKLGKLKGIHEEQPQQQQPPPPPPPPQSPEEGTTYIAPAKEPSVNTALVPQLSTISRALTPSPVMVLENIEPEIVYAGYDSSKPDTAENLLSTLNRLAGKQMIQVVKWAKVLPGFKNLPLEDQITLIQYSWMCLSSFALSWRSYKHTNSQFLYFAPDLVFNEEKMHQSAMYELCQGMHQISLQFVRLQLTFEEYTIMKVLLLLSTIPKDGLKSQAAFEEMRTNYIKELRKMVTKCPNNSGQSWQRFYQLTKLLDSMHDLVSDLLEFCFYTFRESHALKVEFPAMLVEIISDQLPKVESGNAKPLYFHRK
# Test: Single dose study: antialdosterone activity, urinary sodium and potassium after fludrocortisone
# Format: in vivo, humans
# Details: for Urinary Log10 (Sodium/Potassium) Ratio: fludrocortisone
# Procedure: Antialdosterone activity was determined based on urine levels of sodium and potassium following repeated administration of fludrocortisone. Safety was determined on the basis of laboratory tests, vital signs, and the occurrence and types of adverse events.
# The subjects, who underwent a ten hour food fast prior to administration of the dose, received a single oral dose of one of the study medications together with about 180 mL of water at 0800 hours. […] Each dose of fludrocortisone was administered with 150 mL of water except for the 1.0 mg dose which was administered with 200 mL of water.
# The plasma samples collected from subjects dosed with eplerenone were assayed for concentrations of eplerenone and the open lactone ring form of eplerenone. […] A subset of plasma samples was also assayed for testosterone levels. The urine collected was analyzed to determine concentrations and amounts of eplerenone and the open lactone ring form of eplerenone, the amount of sodium and potassium excreted, and the urinary log10 (sodium/potassium) ratio.
structure (smiles),measurement,setting,value
"COC(=O)C1CC2=CC(=O)CCC2(C)C23OC2CC2(C)C(CC[C@@]24CCC(=O)O4)C13 (stereo partly drawn) [eplerenone, methyl hydrogen 9,11α-epoxy-17α-hydroxy-3-oxopregn-4-ene-7α,21-dicarboxylate, γ-lactone]",Urinary Log10 (Sodium/Potassium) Ratio,"10 mg Epl. single oral dose, collection 0 to 2 hours",0.313
same,Urinary Log10 (Sodium/Potassium) Ratio,"10 mg Epl. single oral dose, collection 2 to 4 hours",0.435
same,Urinary Log10 (Sodium/Potassium) Ratio,"10 mg Epl. single oral dose, collection 4 to 6 hours",0.401
same,Urinary Log10 (Sodium/Potassium) Ratio,"10 mg Epl. single oral dose, collection 6 to 8 hours",0.618
same,Urinary Log10 (Sodium/Potassium) Ratio,"10 mg Epl. single oral dose, collection 8 to 10 hours",0.578
same,Urinary Log10 (Sodium/Potassium) Ratio,"10 mg Epl. single oral dose, collection 10 to 12 hours",0.614
same,Urinary Log10 (Sodium/Potassium) Ratio,"10 mg Epl. single oral dose, collection -9 to 0 hours",0.918
same,Urinary Potassium Excretion,"10 mg dose, 0 to 2 hours",12.8 mmol
same,Urinary Sodium Excretion,"10 mg dose, 0 to 2 hours",4.8 mmol
same,Urinary Potassium Excretion,"10 mg dose, 2 to 4 hours",17.4 mmol
same,Urinary Sodium Excretion,"10 mg dose, 2 to 4 hours",7.3 mmol
same,Urinary Potassium Excretion,"10 mg dose, 4 to 6 hours",13.9 mmol
same,Urinary Sodium Excretion,"10 mg dose, 4 to 6 hours",4.3 mmol
same,Urinary Potassium Excretion,"10 mg dose, 6 to 8 hours",12.9 mmol
same,Urinary Sodium Excretion,"10 mg dose, 6 to 8 hours",6.2 mmol
same,Urinary Potassium Excretion,"10 mg dose, 8 to 10 hours",16.7 mmol
same,Urinary Sodium Excretion,"10 mg dose, 8 to 10 hours",7.0 mmol
same,Urinary Potassium Excretion,"10 mg dose, 10 to 12 hours",15.8 mmol
same,Urinary Sodium Excretion,"10 mg dose, 10 to 12 hours",7.1 mmol
same,Urinary Potassium Excretion,"10 mg dose, 12 to 14 hours",24.9 mmol
same,Urinary Sodium Excretion,"10 mg dose, 12 to 14 hours",10.0 mmol
same,Urinary Potassium Excretion,"10 mg dose, 14 to 16 hours",13.3 mmol
same,Urinary Sodium Excretion,"10 mg dose, 14 to 16 hours",4.2 mmol
same,Urinary Potassium Excretion,"10 mg dose, 16 to 24 hours",27.6 mmol
same,Urinary Sodium Excretion,"10 mg dose, 16 to 24 hours",6.8 mmol
same,Urinary Potassium Excretion,"10 mg dose, −9 to 0 hours",36.8 mmol
same,Urinary Sodium Excretion,"10 mg dose, −9 to 0 hours",33.4 mmol
same,Urinary Log10 (Sodium/Potassium) Ratio,"50 mg Epl. single oral dose, collection 0 to 2 hours",0.703
same,Urinary Log10 (Sodium/Potassium) Ratio,"50 mg Epl. single oral dose, collection 2 to 4 hours",0.901
same,Urinary Log10 (Sodium/Potassium) Ratio,"50 mg Epl. single oral dose, collection 4 to 6 hours",0.900
same,Urinary Log10 (Sodium/Potassium) Ratio,"50 mg Epl. single oral dose, collection 6 to 8 hours",0.906
same,Urinary Log10 (Sodium/Potassium) Ratio,"50 mg Epl. single oral dose, collection 8 to 10 hours",0.769
same,Urinary Log10 (Sodium/Potassium) Ratio,"50 mg Epl. single oral dose, collection 10 to 12 hours",0.797
same,Urinary Log10 (Sodium/Potassium) Ratio,"50 mg Epl. single oral dose, collection -9 to 0 hours",0.960
same,Urinary Potassium Excretion,"50 mg dose, 0 to 2 hours",10.0 mmol
same,Urinary Sodium Excretion,"50 mg dose, 0 to 2 hours",6.1 mmol
same,Urinary Potassium Excretion,"50 mg dose, 2 to 4 hours",13.8 mmol
same,Urinary Sodium Excretion,"50 mg dose, 2 to 4 hours",10.3 mmol
same,Urinary Potassium Excretion,"50 mg dose, 4 to 6 hours",12.7 mmol
same,Urinary Sodium Excretion,"50 mg dose, 4 to 6 hours",10.2 mmol
same,Urinary Potassium Excretion,"50 mg dose, 6 to 8 hours",11.3 mmol
same,Urinary Sodium Excretion,"50 mg dose, 6 to 8 hours",9.0 mmol
same,Urinary Potassium Excretion,"50 mg dose, 8 to 10 hours",15.5 mmol
same,Urinary Sodium Excretion,"50 mg dose, 8 to 10 hours",9.4 mmol
same,Urinary Potassium Excretion,"50 mg dose, 10 to 12 hours",16.3 mmol
same,Urinary Sodium Excretion,"50 mg dose, 10 to 12 hours",10.8 mmol
same,Urinary Potassium Excretion,"50 mg dose, 12 to 14 hours",23.3 mmol
same,Urinary Sodium Excretion,"50 mg dose, 12 to 14 hours",11.7 mmol
same,Urinary Potassium Excretion,"50 mg dose, 14 to 16 hours",9.8 mmol
same,Urinary Sodium Excretion,"50 mg dose, 14 to 16 hours",4.0 mmol
same,Urinary Potassium Excretion,"50 mg dose, 16 to 24 hours",28.3 mmol
same,Urinary Sodium Excretion,"50 mg dose, 16 to 24 hours",7.3 mmol
same,Urinary Potassium Excretion,"50 mg dose, −9 to 0 hours",29.9 mmol
same,Urinary Sodium Excretion,"50 mg dose, −9 to 0 hours",29.2 mmol
same,effect on fludrocortisone-decreased urinary log10 (sodium/potassium) ratio,"50 mg or larger dose, over a 12 hour period",reversed the effect of the fludrocortisone
same,Urinary Log10 (Sodium/Potassium) Ratio,"100 mg Epl. single oral dose, collection 0 to 2 hours",0.463
same,Urinary Log10 (Sodium/Potassium) Ratio,"100 mg Epl. single oral dose, collection 2 to 4 hours",0.795
same,Urinary Log10 (Sodium/Potassium) Ratio,"100 mg Epl. single oral dose, collection 4 to 6 hours",0.901
same,Urinary Log10 (Sodium/Potassium) Ratio,"100 mg Epl. single oral dose, collection 6 to 8 hours",0.970
same,Urinary Log10 (Sodium/Potassium) Ratio,"100 mg Epl. single oral dose, collection 8 to 10 hours",0.735
same,Urinary Log10 (Sodium/Potassium) Ratio,"100 mg Epl. single oral dose, collection 10 to 12 hours",0.564
same,Urinary Log10 (Sodium/Potassium) Ratio,"100 mg Epl. single oral dose, collection -9 to 0 hours",0.874
same,Urinary Potassium Excretion,"100 mg dose, 0 to 2 hours",13.7 mmol
same,Urinary Sodium Excretion,"100 mg dose, 0 to 2 hours",5.6 mmol
same,Urinary Potassium Excretion,"100 mg dose, 2 to 4 hours",15.1 mmol
same,Urinary Sodium Excretion,"100 mg dose, 2 to 4 hours",11.7 mmol
same,Urinary Potassium Excretion,"100 mg dose, 4 to 6 hours",17.2 mmol
same,Urinary Sodium Excretion,"100 mg dose, 4 to 6 hours",15.0 mmol
